Measurements as given in patent publication US9573887B2, “Naphthalene derivative” (Daito Chemix Corporation, priority 2010, dated 2017).
Where a name gives a salt, the structure may show the parent alone.

Target: T1, Mouse VCP (Mus musculus, UniProt Q01853)
T1 construct: histidine tag (N); made in house; host or cells: Sf-9 insect cells (baculovirus vector pVL1392)
Assay: ATPase activity of purified His-tagged VCP, [γ-32P]ATP, liberated phosphate by liquid scintillation
Assay type: biochemical
Conditions: compounds of Comparative Examples; determined in the same manner as the Examples
Experimental: In one aspect, the effect of VCP regulators for regulating ATPase activity is determined, for example by the following exemplary assay. Mouse VCP cDNA (the amino acid sequence is completely identical among mouse, rat and human) is added with a DNA sequence corresponding to a histidine tag at the amino-terminal, subcloned into a baculovirus vector pVL1392 (BD Bioscience), and expressed in Sf-9 insect cells. The protein is purified with a nickel column. After the purification the concentration of the protein is adjusted to 0.25-0.5 μg/ml and the protein is stored in a solution containing 50 mM TrisCl pH 8.0, 5 mM EDTA, 10% glycerol, and 15 mM DTT at 4° C. 500 ng of the purified VCP is mixed with 100 μM [γ-^32P]ATP (18.5 GBq/mmol) and the test substance in 20 μL of ATPase buffer (20 mM HEPES (pH7.4), 50 mM KCl, 5 mM MgCl2, 15 mM DTT), and incubated at 37° C. for 10 minutes. The enzyme reaction is stopped with addition of 200 μL of an ice-cold solution containing 7% TCA and 1 mM K2HPO4. 50μ of a solution containing 3.75% ammonium molybdate and 0.02M tungstate silicic/3 N H2SO4 is added, followed by 300 μL of n-butylacetic acid, and then the liberated phosphate is extracted into the organic layer. The reaction tube is centrifuged for 5 minutes at 20,000 g to separate the aqueous layer and the organic layer, 200 μL of the organic layer is taken, and the beta ray radiated from the liberated phosphate is quantified with liquid scintillation counter. By measuring the ATPase activity in the presence of the test substance at various concentrations, ATPase inhibitory activity of the test substance is measured.
Mouse VCP cDNA was added with a DNA sequence corresponding to histidine tag at the amino-terminal, subcloned into a baculovirus vector pVL1392 (BD Bioscience), and expressed in Sf-9 insect cells. The protein was purified with a nickel column (GE Healthcare). The concentration of the protein was adjusted to 0.25-0.5 μg/ml and the protein was stored in a solution containing 50 mM TrisCl pH 8.0, 5 mM EDTA, 10% glycerol, and 15 mM DTT.
The ATPase activity was determined as follows. 500 ng of the purified VCP was mixed with 100 μM [γ-32P]ATP (18.5 GBq/mmol) and the test substance in 20 μL of ATPase buffer (20 mM HEPES (pH7.4), 50 mM KCl, 5 mM MgCl2, 15 mM DTT), and incubated at 37° C. for 10 minutes.
The enzyme reaction was stopped with addition of 200 μL of an ice-cold solution containing 7% TCA and 1 mM K2HPO4. 50μ of a solution containing 3.75% ammonium molybdate and 0.02M tungstate silicic/3 NH2SO4 was added, followed by 300 μL of n-butylacetic acid, and then the liberated phosphate was extracted into the organic layer. The reaction tube was centrifuged for 5 minutes at 20,000 g to separate the aqueous layer and the organic layer, 200 μL of the organic layer was taken, and the beta ray radiated from the liberated phosphate was quantified with liquid scintillation counter.
By measuring the ATPase activity in the presence of the test substance at various concentrations, ATPase inhibitory activity of the test substance was measured. IC50 of the each test substance was calculated by applying the measured values to the equation below using GraphPad Prism (GraphPad Software).

T1 sequence (Q01853 whole entry): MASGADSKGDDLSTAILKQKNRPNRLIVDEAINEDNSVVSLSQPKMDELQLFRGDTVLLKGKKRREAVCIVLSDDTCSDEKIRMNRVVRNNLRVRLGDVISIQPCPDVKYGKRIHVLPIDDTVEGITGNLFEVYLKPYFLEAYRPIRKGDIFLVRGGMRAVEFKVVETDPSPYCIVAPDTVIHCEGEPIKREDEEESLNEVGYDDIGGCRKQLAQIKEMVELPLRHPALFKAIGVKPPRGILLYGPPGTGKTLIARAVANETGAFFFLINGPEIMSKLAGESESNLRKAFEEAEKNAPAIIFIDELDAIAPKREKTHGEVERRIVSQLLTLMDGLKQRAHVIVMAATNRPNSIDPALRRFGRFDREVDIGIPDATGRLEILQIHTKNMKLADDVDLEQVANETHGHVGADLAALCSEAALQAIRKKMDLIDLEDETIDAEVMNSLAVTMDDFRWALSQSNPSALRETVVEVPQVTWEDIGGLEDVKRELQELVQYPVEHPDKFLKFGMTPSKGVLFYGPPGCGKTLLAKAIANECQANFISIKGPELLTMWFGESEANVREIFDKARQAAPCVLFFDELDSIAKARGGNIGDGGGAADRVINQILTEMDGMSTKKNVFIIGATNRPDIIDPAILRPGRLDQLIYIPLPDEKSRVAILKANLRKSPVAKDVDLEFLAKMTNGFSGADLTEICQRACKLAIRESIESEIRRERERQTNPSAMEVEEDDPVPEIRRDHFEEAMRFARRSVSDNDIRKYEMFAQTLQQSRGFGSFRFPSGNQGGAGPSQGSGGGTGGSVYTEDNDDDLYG

| SMILES | IC50 [µM] |
| --- | --- |
| N#Cc1cc(/N=N/c2ccc(-c3ccccc3)nc2)c(N)c2ccccc12 [Example 12, sodium salt] | > 10 |
| Nc1c(-c2ccccc2)cc(S(=O)(=O)O)c2ccccc12 [Example 26, sodium salt] | > 10 |

Same assay, conditions: compounds of Examples; ATPase inhibitory activity; 500 ng VCP, 100 μM ATP, 37° C., 10 minutes

| SMILES | IC50 [µM] |
| --- | --- |
| Nc1c(/N=N/c2cccnc2-c2ccccc2)cc(S(=O)(=O)O)c2ccccc12 [Example 50, 4-amino-3-(2-phenylpyridine-3-ylazo)naphthalene-1-sulfonic acid sodium salt] | 0.468 |
| CC(=O)c1cccc(-c2ccc(/N=N/c3cc(S(=O)(=O)O)c4ccccc4c3N)cn2)c1 [Example 15, 3-[6-(3-acetylphenyl)pyridine-3-ylazo]-4-aminonaphthalene-1-sulfonic acid sodium salt] | 0.189 |
| Cc1ccc(C)c(-c2ccc(/N=N/c3cc(S(=O)(=O)O)c4ccccc4c3N)cn2)c1 [Example 34, 4-amino-3-[6-(2,5-dimethylphenyl)pyridine-3-ylazo]naphthalene-1-sulfonic acid sodium salt] | 0.274 |
| Nc1c(/N=N/c2ccc(-c3cccc4c3oc3ccccc34)nc2)cc(S(=O)(=O)O)c2ccccc12 [Example 39, 4-amino-3-(6-dibenzofuran-4-ylpyridine-3-ylazo)naphthalene-1-sulfonic acid sodium salt] | 0.754 |
| Cc1ccccc1-c1ccc(/N=N/c2cc(S(=O)(=O)O)c3ccccc3c2N)cn1 [Example 10, 4-amino-3-(6-o-tolylpyridine-3-ylazo)naphthalene-1-sulfonic acid sodium salt] | 0.149 |
| Nc1c(/N=N/c2ccccc2)cc(S(=O)(=O)O)c2ccccc12 [Example 93, 4-amino-3-phenylazonaphthalene-1-sulfonic acid sodium salt] | 0.762 |
| Nc1c(/N=N/c2c(Cl)cc(Cl)cc2Cl)cc(S(=O)(=O)O)c2ccccc12 [Example 115, 4-amino-3-(2,4,6-trichlorophenylazo)naphthalene-1-sulfonic acid sodium salt] | 0.297 |
| Nc1c(/N=N/c2ccc(-c3ccccc3Cl)nc2)cc(S(=O)(=O)O)c2ccccc12 [Example 22, 4-amino-3-[6-(2-chlorophenyl)pyridine-3-ylazo]naphthalene-1-sulfonic acid sodium salt] | 0.197 |
| Nc1c(/N=N/c2ccc(-c3ncco3)nc2)cc(S(=O)(=O)O)c2ccccc12 [Example 36, 4-amino-3-(6-oxazole-2-ylpyridine-3-ylazo)naphthalene-1-sulfonic acid sodium salt] | 0.279 |
| Nc1c(/N=N/c2cccnc2-c2cccnc2)cc(S(=O)(=O)O)c2ccccc12 [Example 51, 4-amino-3-([2,3′]-bipyridinyl3-ylazo)naphthalene-1-sulfonic acid sodium salt] | 3.07 |
| CCOc1c(C=O)cc(C)cc1-c1ccc(/N=N/c2cc(S(=O)(=O)O)c3ccccc3c2N)cn1 [Example 149, 4-amino-3-[6-(2-ethoxy-3-formyl-5-methylphenyl)pyridine-3-ylazo]naphthalene-1-sulfonic acid sodium salt] | 0.182 |
| Nc1c(/N=N/c2ccccc2OCc2cccnc2)cc(S(=O)(=O)O)c2ccccc12 [Example 142, 4-amino-3-[2-(pyridine-3-ylmethoxy)phenylazo]naphthalene-1-sulfonic acid sodium salt] | 0.243 |
| CCOc1ccncc1/N=N/c1cc(S(=O)(=O)O)c2ccccc2c1N [Example 13, 4-amino-3-(4-ethoxypyridine-3-ylazo)naphthalene-1-sulfonic acid sodium salt] | 26.6 |
| COCCOc1ccc(/N=N/c2cc(S(=O)(=O)O)c3ccccc3c2N)cn1 [Example 6, 4-amino-3-[6-(2-methoxyethoxy)pyridine-3-ylazo]naphthalene-1-sulfonic acid sodium salt] | 0.518 |
| Cc1cccc(-c2ccc(/N=N/c3cc(S(=O)(=O)O)c4ccccc4c3N)cc2)c1 [Example 126, 4-amino-3-(3′-methylbiphenyl-4-ylazo)naphthalene-1-sulfonic acid sodium salt] | 0.343 |
| Nc1c(/N=N/c2ccc(-c3cccs3)nc2)cc(S(=O)(=O)O)c2ccccc12 [Example 17, 4-amino-3-(6-thiophene-2-ylpyridine-3-ylazo)naphthalene-1-sulfonic acid sodium salt] | 0.143 |
| Cc1ccc(/N=N/c2cc(S(=O)(=O)O)c3ccccc3c2N)c([N+](=O)[O-])c1 [Example 120, 4-amino-3-(4-methyl-2-nitrophenylazo)naphthalene-1-sulfonic acid sodium salt] | 0.162 |
| Nc1c(/N=N/c2ccc(-c3ccccc3OCCCNC(=O)c3cccnc3Cl)nc2)cc(S(=O)(=O)O)c2ccccc12 [Example 69, 4-amino-3-[6-(2-{3-[(2-chloropyridine-3-carbonyl)amino]propoxy}phenyl)pyridine-3-ylazo]naphthalene-1-sulfonic acid sodium salt] | 0.09 |
| Nc1c(/N=N/c2ccc(-c3ccccc3C(F)(F)F)nc2)cc(S(=O)(=O)O)c2ccccc12 [Example 20, 4-amino-3-[6-(2-trifluoromethylphenyl)pyridine-3-ylazo]naphthalene-1-sulfonic acid sodium salt] | 0.17 |
| Nc1c(/N=N/c2ccc(C(=O)O)cc2)cc(S(=O)(=O)O)c2ccccc12 [Example 104, 4-(1-amino-4-sulfonaphthalene-2-ylazo)benzoic acid disodium salt] | 2.07 |
| CCCCOc1c(C=O)cc(C)cc1-c1ccc(/N=N/c2cc(S(=O)(=O)O)c3ccccc3c2N)cn1 [Example 92, 4-amino-3-[6-(3-formyl-2-butoxy-5-methylphenyl)pyridine-3-ylazo]naphthalene-1-sulfonic acid sodium salt] | 0.161 |
| Nc1c(/N=N/c2ccc(-c3cccc4c3S(=O)(=O)c3ccccc3-4)nc2)cc(S(=O)(=O)O)c2ccccc12 [Example 73, 4-amino-3-[6-(5,5-dioxo-5H-5λ^6-dibenzothiophene-4-yl)pyridine-3-ylazo]naphthalene-1-sulfonic acid sodium salt] | 0.499 |
| CC(C)COc1ccccc1-c1ccc(/N=N/c2cc(S(=O)(=O)O)c3ccccc3c2N)cn1 [Example 67, 4-amino-3-[6-(2-isobutoxyphenyl)pyridine-3-ylazo]naphthalene-1-sulfonic acid sodium salt] | 0.13 |
| Cc1cc(F)ccc1-c1ncc(/N=N/c2cc(S(=O)(=O)O)c3ccccc3c2N)cc1C [Example 79, 4-amino-3-[6-(4-fluoro-2-methylphenyl)-5-methylpyridine-3-ylazo]naphthalene-1-sulfonic acid sodium salt] | 0.798 |
| Nc1c(/N=N/c2ccc(-c3cccnc3)cc2)cc(S(=O)(=O)O)c2ccccc12 [Example 123, 4-amino-3-(4-pyridine-3-ylphenylazo)-1-naphthalenesulfonic acid sodium salt] | 0.274 |
| Cc1ccc(F)c(-c2ccc(/N=N/c3cc(S(=O)(=O)O)c4ccccc4c3N)cn2)c1 [Example 59, 4-amino-3-[6-(2-fluoro-5-methylphenyl)pyridine-3-ylazo]naphthalene-1-sulfonic acid sodium salt] | 0.38 |
| Nc1c(/N=N/c2ccc(-c3ccsc3)nc2)cc(S(=O)(=O)O)c2ccccc12 [Example 18, 4-amino-3-(6-thiophene-3-ylpyridine-3-ylazo)naphthalene-1-sulfonic acid sodium salt] | 0.163 |
